Test results taken from PMC2248166, “Quantitative peptide binding motifs for 19 human and mouse MHC class I molecules derived using positional scanning combinatorial peptide libraries” (Immunome Research, 2008).
Where a SMILES comes first, the peptide text is derived from it.

Target: HLA B*1501 (Homo sapiens, UniProt P01889, A329T/A93T/A95T/C349S/D201E/D98Y/E187L/E204Q/E69M/E70A/K202T/N87E/Q94N/R155S/R180W/S121R/S35A/S48A/V306I/V36M/Y140S/Y91S)
Test: biochemical
Format: binding

CC[C@H](C)[C@H](NC(=O)CNC(=O)[C@@H](NC(=O)[C@H](CCCCN)NC(=O)[C@@H](NC(=O)[C@@H](N)CCC(=O)O)[C@@H](C)CC)[C@@H](C)O)C(=O)N[C@@H](CO)C(=O)N[C@@H](CO)C(=O)N[C@@H](Cc1ccccc1)C(=O)O [3102.0969] (H-EIKTGISSF-OH)
IC50: 90 nM

CC[C@H](C)[C@H](NC(=O)[C@@H](N)CCC(=O)O)C(=O)N[C@@H](Cc1ccccc1)C(=O)N[C@@H](CCCCN)C(=O)N[C@@H](Cc1c[nH]cn1)C(=O)N[C@@H](CC(C)C)C(=O)N[C@H](C(=O)N[C@@H](Cc1ccccc1)C(=O)N[C@@H](Cc1ccccc1)C(=O)O)C(C)C [3102.0972] (H-EIFKHLVFF-OH)
IC50: 12 nM

CC[C@H](C)[C@H](NC(=O)[C@H](CC(C)C)NC(=O)[C@H](CC(=O)O)NC(=O)[C@H](CCCNC(=N)N)NC(=O)[C@H](CCSC)NC(=O)[C@@H](N)CC(N)=O)C(=O)N[C@H](C(=O)N[C@H](C(=O)N[C@@H](Cc1ccccc1)C(=O)O)[C@@H](C)O)C(C)C [3102.0975] (H-NMRDLIVTF-OH)
IC50: 8.3 nM

CC(C)C[C@H](NC(=O)[C@@H](N)CC(C)C)C(=O)N[C@@H](CO)C(=O)N[C@@H](CCCNC(=N)N)C(=O)N[C@@H](Cc1ccc(O)cc1)C(=O)N[C@@H](CC(=O)O)C(=O)N[C@@H](CCC(=O)O)C(=O)N[C@@H](Cc1c[nH]cn1)C(=O)N[C@@H](Cc1ccccc1)C(=O)O [3102.0976] (H-LLSRYDEHF-OH)
IC50: 54 nM

CSCC[C@H](NC(=O)[C@H](Cc1c[nH]cn1)NC(=O)[C@H](CCC(=O)O)NC(=O)[C@H](Cc1ccccc1)NC(=O)[C@H](Cc1ccc(O)cc1)NC(=O)CNC(=O)[C@H](CCCNC(=N)N)NC(=O)[C@H](CO)NC(=O)[C@@H](N)CCSC)C(=O)O [3102.0982] (H-MSRGYFEHM-OH)
IC50: 31 nM

CC[C@H](C)[C@H](NC(=O)[C@H](CCSC)NC(=O)[C@@H](N)CO)C(=O)N[C@@H](CC(N)=O)C(=O)N[C@@H](Cc1ccc(O)cc1)C(=O)N[C@@H](Cc1ccc(O)cc1)C(=O)N[C@@H](CC(N)=O)C(=O)N[C@@H](CCC(=O)O)C(=O)N[C@@H](CCSC)C(=O)O [3102.0985] (H-SMINYYNEM-OH)
IC50: 2.3 nM

CC[C@H](C)[C@H](NC(=O)[C@@H](N)Cc1ccccc1)C(=O)N[C@@H](CC(N)=O)C(=O)N[C@@H](CO)C(=O)N[C@H](C(=O)N[C@@H](CS)C(=O)N[C@@H](Cc1ccc(O)cc1)C(=O)N[C@H](C(=O)N[C@@H](Cc1ccccc1)C(=O)O)C(C)C)[C@@H](C)O [3102.0986] (H-FINSTCYVF-OH)
IC50: 4.3 nM

C[C@@H](O)[C@H](NC(=O)[C@H](Cc1ccccc1)NC(=O)[C@H](CO)NC(=O)[C@@H](N)CCCNC(=N)N)C(=O)N[C@@H](Cc1ccccc1)C(=O)N[C@@H](CCCCN)C(=O)N[C@@H](CCC(=O)O)C(=O)NCC(=O)N[C@@H](Cc1ccccc1)C(=O)O [3102.0988] (H-RSFTFKEGF-OH)
IC50: 35 nM

CC[C@H](C)[C@H](NC(=O)[C@H](CO)NC(=O)[C@@H](N)CCSC)C(=O)N[C@@H](CC(=O)O)C(=O)N[C@@H](Cc1c[nH]cn1)C(=O)N[C@@H](CS)C(=O)N[C@@H](CO)C(=O)N[C@@H](CO)C(=O)N[C@@H](Cc1ccccc1)C(=O)O [3102.0989] (H-MSIDHCSSF-OH)
IC50: 0.95 nM

CC[C@H](C)[C@H](N)C(=O)N[C@H](C(=O)N[C@@H](Cc1ccc(O)cc1)C(=O)N[C@@H](CS)C(=O)N[C@@H](CC(C)C)C(=O)N[C@H](C(=O)N[C@H](C(=O)N[C@@H](Cc1c[nH]cn1)C(=O)N[C@@H](CCSC)C(=O)O)[C@@H](C)O)C(C)C)[C@@H](C)O [3102.0993] (H-ITYCLVTHM-OH)
IC50: 25 nM

CC(C)C[C@H](NC(=O)[C@H](Cc1ccc(O)cc1)NC(=O)[C@H](C)NC(=O)[C@@H](N)CCCCN)C(=O)N[C@@H](Cc1ccc(O)cc1)C(=O)N[C@H](C(=O)N[C@@H](CCC(=O)O)C(=O)N[C@@H](Cc1ccc(O)cc1)C(=O)N[C@@H](Cc1ccccc1)C(=O)O)[C@@H](C)O [3102.0995] (H-KAYLYTEYF-OH)
IC50: 7.6 nM

CC[C@H](C)[C@H](NC(=O)[C@@H](N)Cc1c[nH]cn1)C(=O)N[C@@H](CC(N)=O)C(=O)N[C@@H](CCCCN)C(=O)N[C@@H](CC(C)C)C(=O)N[C@@H](Cc1ccccc1)C(=O)N[C@@H](CO)C(=O)N[C@H](C(=O)N[C@@H](Cc1ccccc1)C(=O)O)C(C)C [3102.0997] (H-HINKLFSVF-OH)
IC50: 0.92 nM

CC[C@H](C)[C@H](NC(=O)[C@H](CO)NC(=O)[C@H](C)N)C(=O)N[C@H](C(=O)N[C@@H](C)C(=O)N[C@@H](Cc1ccccc1)C(=O)N[C@@H](CCCCN)C(=O)N[C@@H](CO)C(=O)N[C@@H](CCSC)C(=O)O)[C@@H](C)O [3102.0999] (H-ASITAFKSM-OH)
IC50: 25 nM

CC[C@H](C)[C@H](NC(=O)[C@H](C)NC(=O)[C@@H](N)CC(C)C)C(=O)N1CCC[C@H]1C(=O)N[C@@H](C)C(=O)N[C@H](C(=O)N[C@@H](CCC(=O)O)C(=O)N[C@@H](Cc1ccccc1)C(=O)N[C@@H](Cc1ccccc1)C(=O)O)[C@@H](C)O [3102.1001] (H-LAIPATEFF-OH)
IC50: 4.2 nM

CC[C@H](C)[C@H](NC(=O)[C@H](CO)NC(=O)[C@@H](N)CC(C)C)C(=O)N[C@@H](Cc1ccccc1)C(=O)N[C@@H](Cc1ccccc1)C(=O)N[C@H](C(=O)N[C@H](C(=O)N[C@H](C(=O)N[C@@H](C)C(=O)O)C(C)C)C(C)C)[C@@H](C)CC [3102.1004] (H-LSIFFIVVA-OH)
IC50: 82 nM

CC[C@H](C)[C@H](NC(=O)[C@H](CC(N)=O)NC(=O)[C@H](C)N)C(=O)N[C@H](C(=O)N[C@@H](Cc1c[nH]cn1)C(=O)N[C@@H](Cc1ccccc1)C(=O)N[C@@H](CS)C(=O)N[C@@H](CO)C(=O)N[C@@H](Cc1ccccc1)C(=O)O)[C@@H](C)O [3102.1005] (H-ANITHFCSF-OH)
IC50: 15 nM

CC[C@H](C)[C@H](NC(=O)[C@H](CC(N)=O)NC(=O)[C@H](C)NC(=O)[C@H](CCCNC(=N)N)NC(=O)CNC(=O)[C@@H](N)CC(C)C)C(=O)N[C@H](C(=O)N[C@@H](Cc1c[nH]cn1)C(=O)N[C@@H](Cc1ccccc1)C(=O)O)[C@@H](C)O [3102.1006] (H-LGRANITHF-OH)
IC50: 6.7 nM

CC(C)C[C@H](NC(=O)[C@H](CC(C)C)NC(=O)[C@@H](N)Cc1ccccc1)C(=O)N[C@@H](CO)C(=O)N[C@@H](CC(C)C)C(=O)N[C@H](C(=O)N[C@@H](CCC(=O)O)C(=O)N[C@@H](Cc1ccccc1)C(=O)N[C@@H](Cc1ccccc1)C(=O)O)C(C)C [3102.1008] (H-FLLSLVEFF-OH)
IC50: 0.82 nM

CSCC[C@H](NC(=O)[C@H](CO)NC(=O)[C@H](CS)NC(=O)[C@H](CO)NC(=O)[C@@H](NC(=O)[C@@H](N)CCCCN)C(C)C)C(=O)N[C@@H](CC(C)C)C(=O)N[C@@H](CCC(=O)O)C(=O)N[C@@H](Cc1ccccc1)C(=O)O [3102.1010] (H-KVSCSMLEF-OH)
IC50: 0.84 nM

CC[C@H](C)[C@H](NC(=O)[C@@H](NC(=O)CN)[C@@H](C)O)C(=O)N[C@@H](CCSC)C(=O)N[C@H](C(=O)N[C@@H](CO)C(=O)N[C@@H](CCC(=O)O)C(=O)N[C@@H](Cc1c[nH]cn1)C(=O)N[C@@H](Cc1ccccc1)C(=O)O)C(C)C [3102.1012] (H-GTIMVSEHF-OH)
IC50: 57 nM

CC[C@H](C)[C@H](NC(=O)[C@H](CCSC)NC(=O)[C@H](C)N)C(=O)N[C@@H](CCC(=O)O)C(=O)N[C@@H](CC(C)C)C(=O)N[C@@H](CS)C(=O)NCC(=O)N[C@@H](C)C(=O)N[C@@H](Cc1ccccc1)C(=O)O [3102.1013] (H-AMIELCGAF-OH)
IC50: 0.34 nM
